Like-named read-outs stand apart in the source and are kept apart here.
Experiments:
Trichomonas vaginalis = experiment: Viable Trichomonas vaginalis cell count under a microscope; type: cell-based; conditions: for Inhibitory effect on Trichomonas vaginalis cell counts compared to control: gallic acid 0.11 percent
Method: A sample of Trichomonas vaginalis, the parasite found in trichomonas vaginitis, was obtained from the American Type Culture Collection (ATCC), catalog number 30001. The culture medium was LYI-S-2 medium (ATCC medium 2154).
A sterile LYI-S-2 medium was prepared according to the manufacturer's instructions, and the pH of this medium was adjusted to pH 6.0 using 1 N HCl. Gallic acid monohydrate (SIGMA-398225 from Signa Aldrich, USA) was dissolved in the LYI-S-2 medium. […] 0.9 milliliter of the gallic acid/LYI-S-2 solution or culture medium only (as control) was added into different culture tubes.
0.1 milliliter of Trichomonas vaginalis culture suspension, at a concentration of 1×10^6/milliliter, was added to each of the culture tubes, which were then incubated at 35 degrees Celsius on a 15 degree horizontal slant.
The viable Trichomonas vaginalis cells in each tube were counted under a microscope after 24 hours.
This procedure was repeated twice.
Essentially the same procedure was performed as described in Example 1, but this time differing concentrations of gallic acid were tested on samples of Trichomonas vaginalis. The gallic acid concentrations that were tested were: 0.11 percent, 0.66 percent and 1.1 percent. More samples in each group were included (n=4), and the effects of the gallic acid over a longer time period were also observed, i.e. after 24 and 48 hours.

Candida albicans [1] = experiment: Zone-of-inhibition test, Candida albicans; type: cell-based
Method: (§1) A sample of Candida albicans, the yeast found in candidiasis, was also obtained from the American Type Culture Collection (ATCC), catalog number 10231, and was cultured in YM agar (Difco 0712) and YM broth (Difco 0711). A microorganism culture of 10^5 cfu (colony forming units)/milliliter in a 1× phosphate buffered saline (PBS) solution (diluted from 10× PBS LIQUID CONCENTRATE from VWR Cat. No. EM-6507] was prepared for each of Candida albicans and Lactobacillus acidophilus. One milliliter of each solution was plated on proper agar plates, depending on which microorganism was being tested. The agar plates were incubated at 35 degrees Celsius for four hours. Three 4 millimeter diameter wells were then punched into each agar plate. A test sample of 10 mg/ml gallic acid in sterilized 2-N-morpholino ethane sulfonic (MES, pH=4.7) buffer (0.1 M 2-[morpholino]-ethanesulfonic acid, 0.9 percent NaCl, pH 4.7, prepared from BupHTM MES Buffer Saline Pack from Cat. No. 28390, Pierce Biotechnology, Inc., Rockford, Ill.) was added to one well of each plate. […] The plates were incubated overnight at 35 degrees Celsius. The presence of a zone of microorganism inhibition was measured the following day for Candida albicans and Lactobacillus acidophilus activity, respectively.

[2] = test system: Lactobacillus acidophilus; experiment: Zone-of-inhibition test, Lactobacillus acidophilus; type: cell-based
Method: as §1, with “Lactobacillus acidophilus, a desirable bacterium in” for “Candida albicans,”, “vaginal ecosystem,” for “yeast found in candidiasis,”, “4354,” for “10231,”, “ATCC medium 416.” for “YM agar (Difco 0712) and YM broth (Difco 0711).”

Candida albicans [3] = experiment: Inhibition test in solution by measuring optical density, Candida albicans; type: cell-based; conditions: gallic acid 5 milligram/milliliter, 24 hours, FIG. 3
Method: A sample of Candida albicans, the yeast found in candidiasis, was also obtained from the American Type Culture Collection (ATCC), catalog number 10231, and was cultured in YM agar (Difco 0712) and YM broth (Difco 0711). […] Control and gallic acid solutions (0.9 milliliters) were filtered and added into separate culture tubes, and to these were added 0.1 milliliter of either the Candida albicans or Lactobacillus acidophilus suspension at a concentration of around 10^6 cfu/milliliter. The culture tubes were then incubated overnight at 37 degrees Celsius, whereafter the optical density was measured at 2, 4, 6 and 24 hours at 590 nanometers, by pippeting 100 microliters of the control or sample solutions into 96-well microplates, and then using a Molecular Devices of Sunnyvale, Calif. ThermoMax Microplate Reader to obtain the optical density readings at 590 nm wavelengths.

[4] = test system: Lactobacillus acidophilus; experiment: Inhibition test in solution by measuring optical density, Lactobacillus acidophilus; type: cell-based; conditions: gallic acid 5 milligram/milliliter, 24 hours, FIG. 4
Method: A sample of Lactobacillus acidophilus, a desirable bacterium in the vaginal ecosystem, was also obtained from the American Type Culture Collection (ATCC), catalog number 4354, and was cultured in ATCC medium 416. […] Control and gallic acid solutions (0.9 milliliters) were filtered and added into separate culture tubes, and to these were added 0.1 milliliter of either the Candida albicans or Lactobacillus acidophilus suspension at a concentration of around 10^6 cfu/milliliter. The culture tubes were then incubated overnight at 37 degrees Celsius, whereafter the optical density was measured at 2, 4, 6 and 24 hours at 590 nanometers, by pippeting 100 microliters of the control or sample solutions into 96-well microplates, and then using a Molecular Devices of Sunnyvale, Calif. ThermoMax Microplate Reader to obtain the optical density readings at 590 nm wavelengths.

Gardnerella vaginalis = experiment: Inhibition test in solution by plate count, Gardnerella vaginalis; type: cell-based; conditions: 7.5 mg/ml gallic acid
Method: A sample of Gardnerella vaginalis, the pathogenic bacterium found in bacterial vaginosis, was obtained from the American Type Culture Collection (ATCC), catalog number 14018. The culture medium was ATCC medium 70 and Casman's medium (BD 229010) with 5 percent rabbit blood.
A test compound of Gardnerella vaginalis was prepared in culture media to form a suspension. Control and gallic acid solutions (0.9 milliliters; 7.5 milligram gallic acid/milliliter) were filtered and added into separate culture tubes, and to these were added 0.1 milliliter of the Gardnerella vaginalis suspension at a concentration of around 10^6 cfu/milliliter. The culture tubes were incubated at 37 degrees Celsius for 24 hours.
The samples in the culture tubes were then diluted at 1, 10 and 100 times, and 100 microliters of each dilution was plated onto agar plates with WASP (Whitely Automatic Spiral Plate) spiral plating equipment from Don Whitely Scientific Limited, USA. The plates were incubated overnight at 35 degrees Celsius, and the colonies were counted on each plate by either ProtoCol® from Synbiosis, Frederick, Md., USA Whitely Scientific Limited, USA or by hand count.

[5] = Highest concentration obtainable in water; type: physicochemical; conditions: gallic acid monohydrate, only partially water soluble
[6] = test system: Lactobacillus acidophilus; conditions: previously shown; cited from earlier work
[7] = 10 milligram/ml gallic acid or 0.5 percent Benzyl Quats in well, MES buffer pH 4.7, overnight 35 degrees Celsius, n = 2
[8] = zone-of-inhibition test, gallic acid 10 mg/ml, Benzyl Quats 0.5 percent

## O=C(O)c1cc(O)c(O)c(O)c1 [gallic acid, 3,4,5-trihydroxybenzoic acid]
Trichomonas vaginalis; 24 hours, n=4, FIG. 1
  Inhibitory effect on Trichomonas vaginalis cell counts compared to control: 50%
Trichomonas vaginalis; 48 hours, n=4, FIG. 2
  Inhibitory effect on Trichomonas vaginalis cell counts compared to control: 70%
Trichomonas vaginalis; gallic acid 0.66 percent, 24 hours, n=4, Example 2
  Live Trichomonas vaginalis cells (in words): No live Trichomonas vaginalis cells were observed
Trichomonas vaginalis; gallic acid 0.66 percent, 48 hours, n=4, Example 2
  Live Trichomonas vaginalis cells (in words): No live Trichomonas vaginalis cells were observed
Trichomonas vaginalis; gallic acid 1.1 percent, 24 hours, Example 1
  Live Trichomonas vaginalis cells (in words): no live Trichomonas vaginalis cells were observed
Trichomonas vaginalis; gallic acid 1.1 percent, 24 hours, Example 1, control 1 000 000
  Number of Trichomonas cells, Repeat 2: 0
Trichomonas vaginalis; gallic acid 1.1 percent, 24 hours, Example 1, control 900 000
  Number of Trichomonas cells, Repeat 1: 0
Trichomonas vaginalis; gallic acid 1.1 percent, 24 hours, n=4, Example 2
  Live Trichomonas vaginalis cells (in words): No live Trichomonas vaginalis cells were observed
Trichomonas vaginalis; gallic acid 1.1 percent, 48 hours, n=4, Example 2
  Live Trichomonas vaginalis cells (in words): No live Trichomonas vaginalis cells were observed
Candida albicans [1]; [7]
  Zone of inhibition, Candida albicans: 5 millimeter
Candida albicans [1]; [8]
  Effect on growth of Candida albicans (in words): selectively inhibited Candida albicans
[2]; [7]
  Zone of inhibition, Lactobacillus acidophilus: 0 millimeter
[2]; [8]
  Effect on growth of Lactobacillus acidophilus (in words): did not affect the growth of Lactobacillus acidophilus
Candida albicans [3]
  Growth of Candida albicans by optical density at 590 nm (in words): significantly inhibit the growth of Candida albicans
[4]
  Growth of Lactobacillus acidophilus by optical density at 590 nm (in words): did not show any significant inhibition
Gardnerella vaginalis; 24 hours treatment, n = 4, negative control 1.81E+08, p < 0.05
  Gardnerella vaginalis plate count, Average: *3.43E+04
Gardnerella vaginalis; Gardnerella vaginalis, 24 hours of treatment, read-out: Inhibition on the growth of Gardnerella vaginalis compared to control group
  inhibition at 7500 µg/mL: > 100%
[5]
  Highest concentration of gallic acid that could be obtained in water: 1.1 percent (g/100 milliliter)
[6]
  Effect on growth of Lactobacillus acidophilus (in words): does not affect the growth of Lactobacillus acidophilus

From patent publication US20060217443A1, “Method for preventing and/or treating vaginal and vulval infections” (Kimberly-Clark Worldwide, Inc., priority 2005, published 2006)
